PubChem BioAssay AID248 (DTP/NCI, 2004)
Inconclusive results and toxic doses are left out. No stated cut-off is given here; in the data, active means T/C of 150% or more; inactive means T/C below 125%.

Test system: L1210 leukemia ip in BDF1 mice, survival T/C
Experiment: NCI In Vivo Anticancer Drug Screen. Data for tumor model L1210 Leukemia (intraperitoneal) in B6D2F1 (BDF1) mice
Conditions: higher = longer survival
How it was run: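 Read-out is survival time, reported as the treated-group measurement over the vehicle-control measurement.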

[1] = endpoint: mean survival time, dose: 100.0 mg/kg/injection, schedule: Q01DX009 (ip), vehicle: Klucel (hydroxypropylcellulose) (HPC)
[2] = endpoint: mean survival time, dose: 200.0 mg/kg/injection, schedule: Q01DX009 (ip), vehicle: Klucel (hydroxypropylcellulose) (HPC)
[3] = endpoint: mean survival time, dose: 100.0 mg/kg/injection, schedule: Q04DX003 (ip), vehicle: Klucel (hydroxypropylcellulose) (HPC)
[4] = endpoint: mean survival time, dose: 200.0 mg/kg/injection, schedule: Q04DX003 (ip), vehicle: Klucel (hydroxypropylcellulose) (HPC)
[5] = endpoint: mean survival time, dose: 400.0 mg/kg/injection, schedule: Q04DX003 (ip), vehicle: Klucel (hydroxypropylcellulose) (HPC)

Measured: T/C

CC(=O)O[C@]1(C(C)=O)CC[C@H]2[C@@H]3C[C@H](C)C4=CC(=O)CC[C@]4(C)[C@H]3CC[C@@]21C
inactive: endpoint: mean survival time, dose: 50.0 mg/kg/injection, schedule: Q01DX009 (ip), vehicle: Klucel (hydroxypropylcellulose) (HPC) 109 % of control | endpoint: mean survival time, dose: 100.0 mg/kg/injection, schedule: Q01DX001 (sc), vehicle: steriod suspending solution 102 % of control | [1] 101 % of control | endpoint: mean survival time, dose: 200.0 mg/kg/injection, schedule: Q01DX001 (sc), vehicle: steriod suspending solution 108 % of control | [2] 103 % of control | endpoint: mean survival time, dose: 200.0 mg/kg/injection, schedule: Q01DX009 (sc), vehicle: steriod suspending solution 91 % of control | endpoint: mean survival time, dose: 400.0 mg/kg/injection, schedule: Q01DX001 (sc), vehicle: steriod suspending solution 102 % of control | endpoint: mean survival time, dose: 400.0 mg/kg/injection, schedule: Q01DX009 (ip), vehicle: Klucel (hydroxypropylcellulose) (HPC) 100 % of control | endpoint: mean survival time, dose: 400.0 mg/kg/injection, schedule: Q01DX009 (sc), vehicle: steriod suspending solution 94 % of control | endpoint: mean survival time, dose: 600.0 mg/kg/injection, schedule: Q01DX009 (sc), vehicle: steriod suspending solution 96 % of control | endpoint: mean survival time, dose: 800.0 mg/kg/injection, schedule: Q01DX009 (ip), vehicle: Klucel (hydroxypropylcellulose) (HPC) 104 % of control | endpoint: mean survival time, dose: 800.0 mg/kg/injection, schedule: Q01DX009 (sc), vehicle: steriod suspending solution 91 % of control | endpoint: mean survival time, dose: 1000.0 mg/kg/injection, schedule: Q01DX009 (sc), vehicle: steriod suspending solution 94 % of control | endpoint: median survival time, dose: 16.0 mg/kg/injection, schedule: Q03HX008 (ip), vehicle: Klucel (hydroxypropylcellulose) (HPC) 97 % of control | endpoint: median survival time, dose: 16.0 mg/kg/injection, schedule: Q03HX016 (ip), vehicle: Klucel (hydroxypropylcellulose) (HPC) 94 % of control | endpoint: median survival time, dose: 16.0 mg/kg/injection, schedule: Q03HX024 (ip), vehicle: Klucel (hydroxypropylcellulose) (HPC) 96 % of control | endpoint: median survival time, dose: 32.0 mg/kg/injection, schedule: Q03HX008 (ip), vehicle: Klucel (hydroxypropylcellulose) (HPC) 96 % of control | endpoint: median survival time, dose: 32.0 mg/kg/injection, schedule: Q03HX016 (ip), vehicle: Klucel (hydroxypropylcellulose) (HPC) 94 % of control | endpoint: median survival time, dose: 32.0 mg/kg/injection, schedule: Q03HX024 (ip), vehicle: Klucel (hydroxypropylcellulose) (HPC) 95 % of control | endpoint: median survival time, dose: 64.0 mg/kg/injection, schedule: Q01DX009 (ip), vehicle: Klucel (hydroxypropylcellulose) (HPC) 107 % of control | endpoint: median survival time, dose: 64.0 mg/kg/injection, schedule: Q03HX008 (ip), vehicle: Klucel (hydroxypropylcellulose) (HPC) 93 % of control | endpoint: median survival time, dose: 64.0 mg/kg/injection, schedule: Q03HX016 (ip), vehicle: Klucel (hydroxypropylcellulose) (HPC) 94 % of control | endpoint: median survival time, dose: 64.0 mg/kg/injection, schedule: Q03HX024 (ip), vehicle: Klucel (hydroxypropylcellulose) (HPC) 93 % of control | endpoint: median survival time, dose: 128.0 mg/kg/injection, schedule: Q01DX001 (ip), vehicle: Klucel (hydroxypropylcellulose) (HPC) 100 % of control | endpoint: median survival time, dose: 128.0 mg/kg/injection, schedule: Q01DX009 (ip), vehicle: Klucel (hydroxypropylcellulose) (HPC) 105 % of control | endpoint: median survival time, dose: 128.0 mg/kg/injection, schedule: Q03HX008 (ip), vehicle: Klucel (hydroxypropylcellulose) (HPC) 93 % of control | endpoint: median survival time, dose: 128.0 mg/kg/injection, schedule: Q03HX016 (ip), vehicle: Klucel (hydroxypropylcellulose) (HPC) 93 % of control | endpoint: median survival time, dose: 128.0 mg/kg/injection, schedule: Q04DX003 (ip), vehicle: Klucel (hydroxypropylcellulose) (HPC) 102 % of control | endpoint: median survival time, dose: 128.0 mg/kg/injection, schedule: Q08DX002 (ip), vehicle: Klucel (hydroxypropylcellulose) (HPC) 100 % of control | endpoint: median survival time, dose: 256.0 mg/kg/injection, schedule: Q01DX001 (ip), vehicle: Klucel (hydroxypropylcellulose) (HPC) 96 % of control | endpoint: median survival time, dose: 256.0 mg/kg/injection, schedule: Q01DX009 (ip), vehicle: Klucel (hydroxypropylcellulose) (HPC) 104 % of control | endpoint: median survival time, dose: 256.0 mg/kg/injection, schedule: Q04DX003 (ip), vehicle: Klucel (hydroxypropylcellulose) (HPC) 105 % of control | endpoint: median survival time, dose: 256.0 mg/kg/injection, schedule: Q08DX002 (ip), vehicle: Klucel (hydroxypropylcellulose) (HPC) 108 % of control | endpoint: median survival time, dose: 512.0 mg/kg/injection, schedule: Q01DX001 (ip), vehicle: Klucel (hydroxypropylcellulose) (HPC) 100 % of control | endpoint: median survival time, dose: 512.0 mg/kg/injection, schedule: Q01DX009 (ip), vehicle: Klucel (hydroxypropylcellulose) (HPC) 100 % of control | endpoint: median survival time, dose: 512.0 mg/kg/injection, schedule: Q04DX003 (ip), vehicle: Klucel (hydroxypropylcellulose) (HPC) 98 % of control | endpoint: median survival time, dose: 512.0 mg/kg/injection, schedule: Q08DX002 (ip), vehicle: Klucel (hydroxypropylcellulose) (HPC) 100 % of control | endpoint: median survival time, dose: 1024.0 mg/kg/injection, schedule: Q01DX001 (ip), vehicle: Klucel (hydroxypropylcellulose) (HPC) 102 % of control | endpoint: median survival time, dose: 1024.0 mg/kg/injection, schedule: Q01DX009 (ip), vehicle: Klucel (hydroxypropylcellulose) (HPC) 105 % of control | endpoint: median survival time, dose: 1024.0 mg/kg/injection, schedule: Q04DX003 (ip), vehicle: Klucel (hydroxypropylcellulose) (HPC) 114 % of control | endpoint: median survival time, dose: 1024.0 mg/kg/injection, schedule: Q08DX002 (ip), vehicle: Klucel (hydroxypropylcellulose) (HPC) 97 % of control | endpoint: median survival time, dose: 2048.0 mg/kg/injection, schedule: Q01DX001 (ip), vehicle: Klucel (hydroxypropylcellulose) (HPC) 92 % of control | endpoint: median survival time, dose: 2048.0 mg/kg/injection, schedule: Q08DX002 (ip), vehicle: Klucel (hydroxypropylcellulose) (HPC) 95 % of control

N#CCc1c[nH]c2ccc(OCc3ccccc3)cc12
inactive: endpoint: mean survival time, dose: 50.0 mg/kg/injection, schedule: Q01DX009 (ip), vehicle: other 100 % of control | endpoint: mean survival time, dose: 100.0 mg/kg/injection, schedule: Q01DX009 (ip), vehicle: other 94 % of control | endpoint: mean survival time, dose: 200.0 mg/kg/injection, schedule: Q01DX009 (ip), vehicle: other 108 % of control

O=[N+]([O-])c1ccc(N2CCCCC2)cc1
inactive: endpoint: mean survival time, dose: 100.0 mg/kg/injection, schedule: Q01DX001 (ip), vehicle: other 108 % of control | [3] 107 % of control | endpoint: mean survival time, dose: 200.0 mg/kg/injection, schedule: Q01DX001 (ip), vehicle: other 90 % of control | [4] 104 % of control | endpoint: mean survival time, dose: 222.0 mg/kg/injection, schedule: Q01DX Z (ip), vehicle: methylcellulose (MC) 102 % of control | endpoint: mean survival time, dose: 333.0 mg/kg/injection, schedule: Q01DX Z (ip), vehicle: methylcellulose (MC) 94 % of control | endpoint: mean survival time, dose: 400.0 mg/kg/injection, schedule: Q01DX001 (ip), vehicle: other 103 % of control | [5] 107 % of control | endpoint: mean survival time, dose: 500.0 mg/kg/injection, schedule: Q01DX Z (ip), vehicle: methylcellulose (MC) 100 % of control

N#CCC(=O)N/N=C/c1cc(Cl)cc(Cl)c1O
inactive: endpoint: mean survival time, dose: 100.0 mg/kg/injection, schedule: Q04DX002 (ip), vehicle: saline with Tween-80 108 % of control | endpoint: mean survival time, dose: 200.0 mg/kg/injection, schedule: Q04DX002 (ip), vehicle: saline with Tween-80 97 % of control | endpoint: mean survival time, dose: 400.0 mg/kg/injection, schedule: Q04DX002 (ip), vehicle: saline with Tween-80 93 % of control

c1cnon1
inactive: endpoint: mean survival time, dose: 100.0 mg/kg/injection, schedule: Q01DX001 (ip), vehicle: saline 102 % of control | endpoint: mean survival time, dose: 200.0 mg/kg/injection, schedule: Q01DX001 (ip), vehicle: saline 102 % of control | endpoint: mean survival time, dose: 400.0 mg/kg/injection, schedule: Q01DX001 (ip), vehicle: saline 95 % of control

O=C(O)c1c(Cl)c(-c2c(Cl)c(C(=O)O)c(Cl)c([N+](=O)[O-])c2Cl)c(Cl)c([N+](=O)[O-])c1Cl
inactive: endpoint: mean survival time, dose: 100.0 mg/kg/injection, schedule: Q01DX009 (ip), vehicle: saline with Tween-80 96 % of control | endpoint: mean survival time, dose: 200.0 mg/kg/injection, schedule: Q01DX009 (ip), vehicle: saline with Tween-80 96 % of control | endpoint: mean survival time, dose: 400.0 mg/kg/injection, schedule: Q01DX009 (ip), vehicle: saline with Tween-80 93 % of control

COC(=O)C1=C2c3ccc(OC)cc3CCC2C(=O)C1 (configuration not stated)
inactive: [3] 97 % of control | [4] 105 % of control | [5] 89 % of control

COC(=O)C(C)(N)Cc1ccc(O)c(C)c1 (configuration not stated)
inactive: [1] 96 % of control | [3] 108 % of control | [2] 100 % of control | [4] 101 % of control | [5] 95 % of control
